Consider 12 compounds from ChEMBL document CHEMBL5214981, “Thionated aminofluorophthalimides reduce classical markers of cellular inflammation in LPS-challenged RAW 264.7 cells” (Bioorg Med Chem Lett, 2022).

Each structure is given as a SMILES string.

The test system of data set [1] is RAW264.7. Nature of the data set: Antiinflammatory activity in LPS-activated mouse RAW264.7 cells assessed as inhibition of nitrite production at 10 uM measured at 24 to 48 hrs after LPS stimulation by ELISA analysis relative to control. Type of data set: functional. Set-up: scale not given: the % may be the effect or the level left. The conditions noted are these: time 24-48 hrs. For orientation: ELISA stands for enzyme-linked immunosorbent assay.

The subject of data set [2] is RAW264.7. Put plainly: Antiinflammatory activity in LPS-activated mouse RAW264.7 cells assessed as inhibition of TNF-alpha production at 10 uM measured at 24 to 48 hrs after LPS stimulation by ELISA analysis relative to control. Type of data set: functional. Details: scale not given: the % may be the effect or the level left. The conditions noted are these: time 24-48 hrs.

For data set [3], the system named is RAW264.7. Nature of the data set: Cytotoxicity against LPS-activated mouse RAW264.7 cells assessed as reduction in cell viability at 10 uM measured at 24 to 48 hrs by MTS assay relative to control. Format: toxicity, cell-based. Conditions: raw264.7, 10 µM, time 24-48 hrs.
A short description of data set [4]: Metabolic stability in human liver microsomes assessed as compound remaining at 10 uM using pH 7.4 phosphate buffer incubated for 60 mins in the presence of NADPH regenerating system by LC/MS analysis (reference value: 100%). Conditions: read-out: Stability. Type of data set: ADME, Microsome.
Data set [5] is described as follows: Metabolic stability in human liver microsomes assessed as compound remaining at 10 uM using pH 7.4 phosphate buffer incubated for 30 mins in the absence of NADPH regenerating system by LC/MS analysis (reference value: 100%). Type of data set: ADME, Microsome. The conditions noted are these: read-out: Stability. For orientation: Liver microsomes are a subcellular fraction often used to study metabolism.

Data set [6] can be described thus: Metabolic stability in human liver microsomes assessed as compound remaining at 10 uM using pH 7.4 phosphate buffer incubated for 30 mins in the presence of NADPH regenerating system by LC/MS analysis (reference value: 100%). Conditions: read-out: Stability. Type of data set: ADME, Microsome.
A short description of data set [7]: Metabolic stability in human liver microsomes assessed as compound remaining at 10 uM using pH 7.4 phosphate buffer incubated for 60 mins in the absence of NADPH regenerating system by LC/MS analysis (reference value: 100%). Format: ADME, Microsome. The conditions noted are these: read-out: Stability.

As to `Nc1ccc(F)c2c1C(=O)N(C1CCC(=S)NC1=O)C2=O` (centres undefined), the Activity in the data set on RAW264.7 [1] is on record as 59%; with RAW264.7 [2] it was 107%; in the data set on RAW264.7 [3], 112.4%.
The corresponding values for `Nc1ccc(F)c2c1C(=O)N(C1CCC(=O)NC1=O)C2=O` (centres undefined) are 86%, 98% and 100.9%.
Regarding `Nc1ccc(F)c2c1C(=S)N(C1CCC(=S)NC1=O)C2=O` (centres undefined), the remaining at 1 h, 10 µM in data set [4] worked out at 41%; in data set [7], 46%. The Activity in the data set on RAW264.7 [1] was determined as 22%; in the data set on RAW264.7 [2], 104.1%; in the data set with RAW264.7 [3], 95%. The remaining at 0.5 h, 10 µM in data set [5] came out at 71%; in data set [6], 64%.
With `CC(C)Nc1ccc(F)c2c1C(=O)N(C1CCC(=S)NC1=O)C2=O` (centres undefined), the Activity with RAW264.7 [1] worked out at 74.8%; with RAW264.7 [2], 94.4%; in the data set on RAW264.7 [3] it was 112.3%.
`O=C1NC(=S)CCC1N1C(=O)c2c(F)ccc([N+](=O)[O-])c2C1=O` (centres undefined): the Activity in the data set with RAW264.7 [1] is reported as 4.7%; in the data set on RAW264.7 [2], 51.3%; in the data set on RAW264.7 [3], 44.9%.
`CC(C)Nc1ccc(F)c2c1C(=S)N(C1CCC(=S)NC1=O)C2=O` (centres undefined): the Activity is given as 32.3% in the data set on RAW264.7 [1], 74.7% in the data set on RAW264.7 [2] and 74.1% in the data set on RAW264.7 [3].
The corresponding values for `Nc1c(F)ccc2c1C(=S)N(C1CCC(=S)NC1=O)C2=O` (centres undefined) are 40%, 114% and 92%.
The corresponding values for `CC(C)Nc1ccc(F)c2c1C(=O)N(C1CCC(=O)NC1=O)C2=O` (centres undefined) are 110.1%, 87.1% and 99.9%.
The corresponding values for `O=C1CCC(N2C(=O)c3c(F)ccc([N+](=O)[O-])c3C2=O)C(=O)N1` (centres undefined) are 56.8%, 86% and 104.9%.
For `Nc1cccc2c1C(=S)N(C1CCC(=S)NC1=O)C2=O` (centres undefined), the remaining at 1 h, 10 µM in data set [4] was 48%; in data set [7], 53%. Moreover, the Activity in the data set on RAW264.7 [1] stood at 43%; in the data set on RAW264.7 [2], 113%; in the data set on RAW264.7 [3], 92%. Moreover, the remaining at 0.5 h, 10 µM in data set [5] was found to be 71%; in data set [6] it was 68%.
Consider `Nc1c(F)ccc2c1C(=O)N(C1CCC(=O)NC1=O)C2=O` (centres undefined), for which the values for the Activity in the data set on RAW264.7 [1], with RAW264.7 [2] and in the data set with RAW264.7 [3] were 100%, 93% and 90%, respectively.
For `Nc1cccc2c1C(=O)N(C1CCC(=O)NC1=O)C2=O` (centres undefined) [POMALIDOMIDE] the same measures were 91%, 95% and 95%.
